Data taken from patent publication US10618937B2, “Method of treating Alzheimer's disease” (INDUSTRY-ACADEMIC COOPERATION FOUNDATION GYEONGSANG …, priority 2016, dated 2020).

Experiments:
[1] = test system: APP-transfected SH-SY5Y cells; assay: MTT assay, cell viability of APP-transfected SH-SY5Y cells; type: cell-based, human; details: 0.5, 1, 5, 10 and 20 μM, 4 hours, compared to the untreated APP group
Experimental: The human APPswe/ind gene under the transcriptional control of the SV40 promoter/enhancer linked to the pCAX mammalian expression vector was obtained from addgene; The gene was deposited in the APP reservoir by Dennis Solkoe (plasmid 30145). The plasmid was amplified by DH5alpha strain in LB medium containing 50 μg/ml of ampicillin. The plasmid was purified by using a Qiagen plasmid mini kit (Cat #12143) and digested with EcoRV restriction enzyme and confirmed. The human neuroblastoma cell line SHYSY5Y used in the present in vitro experiments was cultured in DMEM medium containing 10% fetal bovine serum and 1% penicillin-streptomycin antibiotic (stock solutions concentrations of 10,000 U and 10,000 μg/ml, respectively)).
SH-SY5Y cells and HT-22 cells were inoculated into a culture flask containing the medium, and cultured until reaching the confluency of 70% to 75%. The pCAX vector with the APPswe/ind gene was transfected for 48 hours by using Lipofectamine 3000 (Life technologies) according to the manufacturers instructions.
APPswe/ind transfected SH-SY5Y cells were treated with novel peptide for 4 hours, followed by 3-[4, 5-dimethylthiazol-2-yl]-2,5-diphenyl tetrazolium bromide (MTT) analysis and Western blot analysis.
MTT assay was performed to measure the survival rate of cells treated with various concentrations of adiponectin receptor-activating novel peptide (5AA1). The cells were inoculated at 1×10^5 cells/well in a 96-well plate containing 200 μl of Dulbecco's modified Eagle's medium (DMEM). After 70% of cell confluence, SH-SY5Y cells were treated with 0.5 μM, 1 μM, 5 μM, 10 μM, and 20 μM of adiponectin receptor-activating novel peptide, and then cultured for 4 hours. At the end of the treatment, MTT (5 mg/ml in PBS) was added to each well, and the plate was cultured at a temperature of 37° C. for 4 hours. The formazan dissolved in dimethyl sulfoxide (DMSO) was added to the well and the plate was stirred in the agitator for 10 to 20 minutes. Then, the absorbance was measured at a wavelength of 550 nm to 570 nm (L1) and 620 nm to 650 nm (L2) by using a scanning microplate reader.
The L2 absorbance was measured for cell residuals and well imperfections, and the corrected absorbance (Abs.=L1−L2) of each well was calculated from 100× the absorbance of treated well/absorbance of the control well, and was used to measure the cell viability.

APP/PS1 model mice = assay: Y-maze test; type: in vivo; details: 45 days after IP administration
Experimental: Male C57BL/6J wild type mice and double transgenic B6.Cg-Tg (APPswe, PSENdE9) 85Dbo Mmjax (APP/PS1) AD-model mice were obtained from Jackson Laboratories (Bar Harbor, Me., USA). The brains of the double transfected mice express Swedish mutation-containing chimeric mouse-human amyloid precursor protein (Mo/HuAPP695swe) and mutant human presenilin 1 protein (PS1-dE9). The mice were fed with an unlimited supply of food and water at an animal breeding ground of a university at a temperature of 23° C., at the relative humidity of 60±10% and in the black and light cycle of 12 h/12 h. When the mice reached 10 months of age, they were transferred to the injection and behavior observation room for 1 week for purification. The maintenance and treatment for mice were performed according to the guidelines of the Animal Ethics Committee (IACUC) issued by Department of Biology, Division of Applied Life Science of Gyeongsang National University in Korea. Experiments according to the present disclosure were conducted according to the guidelines approved by the guidelines of the Animal Ethics Committee (IACUC) issued by Department of Biology, Division of Applied Life Science of Gyeongsang National University in Korea (approval ID: 125). […]
Alteration behavior ratio (%) was calculated as [set of overlapping triplets (consecutive entry into 3 different arms)/total entry−2]×100. […]

normal mouse = assay: Morris water maze test in normal (wild type) mice; type: in vivo; details: normal mouse treated with peptide, IP
Experimental: Male C57BL/6J wild type mice and double transgenic B6.Cg-Tg (APPswe, PSENdE9) 85Dbo Mmjax (APP/PS1) AD-model mice were obtained from Jackson Laboratories (Bar Harbor, Me., USA). The brains of the double transfected mice express Swedish mutation-containing chimeric mouse-human amyloid precursor protein (Mo/HuAPP695swe) and mutant human presenilin 1 protein (PS1-dE9). The mice were fed with an unlimited supply of food and water at an animal breeding ground of a university at a temperature of 23° C., at the relative humidity of 60±10% and in the black and light cycle of 12 h/12 h. […]
The Morris Underwater Maze Test System was constructed as a circular water tank with a diameter of 100 cm and a height of 40 cm containing 15.5 cm depth of water (temperature of 23±1° C.) which was opaque with white ink added. […] The delay time for escaping from the water maze (the time to find the hidden escape platform) was calculated for each trial. […] For the probe experiment, the platform was removed, each mouse was allowed to freely swim for 60 seconds, the amount of time the mouse spent in the target quadrant was measured, and the number of platform positions the mouse passed by (where the platform was located during the hidden platform training). […] All data were recorded by using video-tracking software (SMART, Panlab Harward Apparatus, Bioscience Company, Holliston, Mass., USA).

**Q.** For “RGPCG (adiponectin receptor-activating peptide) [5AA1]”, which cell viability [1] is on record?
**A.** concentration-dependently increased

**Q.** And the spontaneous alteration (APP/PS1 model mice)?
**A.** restored

**Q.** And the “latency (time to find the hidden escape platform)” value (normal mouse)?
**A.** less than 10 seconds
